Measured values: patent US20260317356A1, “SMALL MOLECULE MODULATORS OF OGG1” (AZKARRA THERAPEUTICS, INC., priority 2023, published 2026)

Molecular target: hOGG1 (Homo sapiens, UniProt O15527)
Experiment: Biochemical fluorescence assay to measure enzymatic activity of hOGG1 (OGG1/APEX IC50)
Set-up: Protein His-hOGG1 (12-323) was prepared; His (N); host or cells: E. coli
Conditions: 1 nM OGG1+2 nM APEX+6 nM dsDNA (8-oxo-dG substrate); pH 7.5; RT 40 min; read-out: OGG1/APEX IC50
Summary of the method: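 Coupled glycosylase/AP-endonuclease read-out: 8-oxo-dG-containing dsDNA (6 nM) cleaved by 1 nM His-hOGG1 (12-323) plus 2 nM APEX1 over 40 min at room temperature, after 20 min enzyme–compound preincubation; buffer 20 mM Tris pH 7.5, 100 mM KCl, 0.1% BSA, 0.01% Tween. IC50 comes from sigmoidal 3-parameter fitting of % inhibition derived from TAMRA signal.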

Sequence of hOGG1 (O15527 12-323): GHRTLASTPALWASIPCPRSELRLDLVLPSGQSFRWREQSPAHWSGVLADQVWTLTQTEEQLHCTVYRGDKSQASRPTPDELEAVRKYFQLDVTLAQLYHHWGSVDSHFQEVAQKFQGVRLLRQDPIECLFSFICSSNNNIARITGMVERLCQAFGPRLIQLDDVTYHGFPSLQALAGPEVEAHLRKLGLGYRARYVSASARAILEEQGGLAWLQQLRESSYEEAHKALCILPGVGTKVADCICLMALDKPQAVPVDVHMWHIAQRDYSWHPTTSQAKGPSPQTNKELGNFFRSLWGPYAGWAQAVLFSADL

Structure (SMILES)	IC50
COc1cc(NC(=O)[C@H]2CC[C@@H](N3Cc4c(C)ccc(CN)c4NC3=O)CC2)ccc1C [Example 58, (1s,4s)-4-(8-(aminomethyl)-5-methyl-2-oxo-1,2-dihydroquinazolin-3(4H)-yl)-N-(3-methoxy-4-methylphenyl)cyclohexanecarboxamide]	< 100 nM
COc1ccc(NC(=O)[C@H]2CC[C@@H](N3Cc4c(C)cc(NCCN(C)C)cc4NC3=O)CC2)cc1C#N [Example 99, (1s,4s)-N-(3-cyano-4-methoxyphenyl)-4-(7-(2-(dimethylamino)ethylamino)-5-methyl-2-oxo-1,2-dihydroquinazolin-3(4H)-yl)cyclohexanecarboxamide]	< 100 nM
COc1ccc(NC(=O)[C@]2(C)CC[C@H](N3Cc4c(C)cccc4NC3=O)CC2)cc1Cl (single isomer, unassigned) [Example 103, (1s,4s)-N-(3-chloro-4-methoxyphenyl)-1-methyl-4-(5-methyl-2-oxo-1,2-dihydroquinazolin-3(4H)-yl)cyclohexanecarboxamide]	< 100 nM
COc1ccc(NC(=O)[C@H]2CC[C@@H](N3Cc4c(C)ccnc4NC3=O)CC2)cc1C [Example 16, (1s,4s)-N-(4-Methoxy-3-methylphenyl)-4-(5-methyl-2-oxo-1,2-dihydropyrido[2,3-d]pyrimidin-3(4H)-yl)cyclohexanecarboxamide]	< 100 nM
COc1ccc(NC(=O)[C@H]2CC[C@@H](N3Cc4c(C)cc(NCCN(C)C)cc4C3=O)CC2)cc1C [Example 256, (1s,4s)-4-(6-(2-(Dimethylamino)ethylamino)-4-methyl-1-oxoisoindolin-2-yl)-N-(4-methoxy-3-methylphenyl)cyclohexanecarboxamide]	< 100 nM
COc1cc(NC(=O)[C@H]2CC[C@@H](N3Cc4c(C)ccnc4NC3=O)CC2)ccc1C [Example 41, (1s,4s)-N-(3-Methoxy-4-methylphenyl)-4-(5-methyl-2-oxo-1,2-dihydropyrido[2,3-d]pyrimidin-3(4H)-yl)cyclohexanecarboxamide]	< 100 nM
COc1cc(NC(=O)[C@H]2CC[C@@H](N3Cc4c(C)ccc(OCC5CNC5)c4NC3=O)CC2)ccc1C [Example 44, (1s,4s)-4-(8-(Azetidin-3-ylmethoxy)-5-methyl-2-oxo-1,2-dihydroquinazolin-3(4H)-yl)-N-(3-methoxy-4-methylphenyl)cyclohexanecarboxamide]	< 100 nM
COc1cc(NC(=O)[C@]2(C)CC[C@H](N3Cc4c(C)ccc(OC)c4NC3=O)CC2)ccc1C [Example 13, (1s,4s)-N-(3-Methoxy-4-methylphenyl)-4-(8-methoxy-5-methyl-2-oxo-1,2-dihydroquinazolin-3(4H)-yl)-1-methylcyclohexanecarboxamide]	100 to 1000 nM
COc1ccc(NC(=O)[C@H]2CC[C@@H](N3Cc4c(C)ccc(OC)c4NC3=O)CC2)cc1C#N [Example 2, (1s,4s)-N-(3-Cyano-4-methoxyphenyl)-4-(8-methoxy-5-methyl-2-oxo-1,2-dihydroquinazolin-3(4H)-yl)cyclohexanecarboxamide]	100 to 1000 nM
COc1ccc(NC(=O)[C@H]2CC[C@@H](N3Cc4c(C)ccnc4NC3=O)CC2)cc1 [Example 15, (1s,4s)-N-(4-methoxyphenyl)-4-(5-methyl-2-oxo-1,2-dihydropyrido[2,3-d]pyrimidin-3(4H)-yl)cyclohexanecarboxamide]	1000 to 10000 nM
COc1ccc(NC(=O)[C@H]2CC[C@@H](N3Cc4c(C)cc(NCCN(C)C)cc4NC3=O)CC2)cc1C [Example 97, (1s,4s)-4-(7-(2-(dimethylamino)ethylamino)-5-methyl-2-oxo-1,2-dihydroquinazolin-3(4H)-yl)-N-(4-methoxy-3-methylphenyl)cyclohexanecarboxamide]	< 100 nM
COc1ccc(NC(=O)[C@H]2CC[C@@H](N3Cc4c(C)cc(NCCN(C)C)cc4C3=O)CC2)cc1Cl [Example 260, (1s,4s)-N-(3-Chloro-4-methoxyphenyl)-4-(6-(2-(dimethylamino)ethylamino)-4-methyl-1-oxoisoindolin-2-yl)cyclohexanecarboxamide]	< 100 nM
COc1ccc(NC(=O)[C@H]2CC[C@@H](N3Cc4c(C)cccc4C3=O)CC2)cc1C [Example 227, (1s,4s)-N-(4-Methoxy-3-methylphenyl)-4-(4-methyl-1-oxoisoindolin-2-yl)cyclohexanecarboxamide]	100 to 1000 nM
COc1cc(NC(=O)[C@H]2CC[C@@H](N3Cc4c(C)cnc(CNC(C)=O)c4NC3=O)CC2)ccc1C [Example 19, (1s,4s)-4-(8-(Acetamidomethyl)-5-methyl-2-oxo-1,2-dihydropyrido[3,4-d]pyrimidin-3(4H)-yl)-N-(3-methoxy-4-methylphenyl)cyclohexanecarboxamide]	< 100 nM
COc1ccc(NC(=O)[C@H]2CC[C@@H](N3Cc4c(C)cc(NCCN(C)C)cc4C3=O)CC2)cc1C#N [Example 259, (1s,4s)-N-(3-Cyano-4-methoxyphenyl)-4-(6-(2-(dimethylamino)ethylamino)-4-methyl-1-oxoisoindolin-2-yl)cyclohexanecarboxamide]	< 100 nM
COc1cc(NC(=O)[C@H]2CC[C@@H](N3Cc4c(C)ccc(P(C)(C)=O)c4NC3=O)CC2)ccc1C [Example 5, (1s,4s)-4-(8-(Dimethylphosphoryl)-5-methyl-2-oxo-1,2-dihydroquinazolin-3(4H)-yl)-N-(3-methoxy-4-methylphenyl)cyclohexanecarboxamide]	100 to 1000 nM
COc1cc(NC(=O)[C@H]2CC[C@@H](N3Cc4c(C)cc(CN)cc4NC3=O)CC2)ccc1C [Example 28, (1s,4s)-4-(7-(Aminomethyl)-5-methyl-2-oxo-1,2-dihydroquinazolin-3(4H)-yl)-N-(3-methoxy-4-methylphenyl)cyclohexanecarboxamide]	< 100 nM
COc1cc(NC(=O)[C@H]2CC[C@@H](N3Cc4c(C)ccc(OC)c4NC3=O)CC2)ccc1C [Example 47, (1s,4s)-N-(3-Methoxy-4-methylphenyl)-4-(8-methoxy-5-methyl-2-oxo-1,2-dihydroquinazolin-3(4H)-yl)cyclohexanecarboxamide]	< 100 nM
CNCCNc1cc(C)c2c(c1)C(=O)N([C@H]1CC[C@@H](C(=O)Nc3ccc(C)c(OC)c3)CC1)C2 [Example 193, (1s,4s)-N-(3-methoxy-4-methylphenyl)-4-(4-methyl-6-(2-(methylamino)ethylamino)-1-oxoisoindolin-2-yl)cyclohexanecarboxamide]	< 100 nM
COc1cc(NC(=O)[C@H]2CC[C@@H](N3Cc4c(C)ccc(CNC(C)=O)c4NC3=O)CC2)ccc1C [Example 17, (1s,4s)-4-(8-(Acetamidomethyl)-5-methyl-2-oxo-1,2-dihydroquinazolin-3(4H)-yl)-N-(3-methoxy-4-methylphenyl)cyclohexanecarboxamide]	< 100 nM
COc1cc(NC(=O)[C@H]2CC[C@@H](N3Cc4c(C)ccc(N5CC6(COC6)C5)c4NC3=O)CC2)ccc1C [Example 35, (1s,4s)-N-(3-Methoxy-4-methylphenyl)-4-(5-methyl-2-oxo-8-(2-oxa-6-azaspiro[3.3]heptan-6-yl)-1,2-dihydroquinazolin-3(4H)-yl)cyclohexanecarboxamide]	100 to 1000 nM
COc1cc(NC(=O)[C@H]2CC[C@@H](N3Cc4c(C)cc(OCCN5CC(F)(F)C5)cc4C3=O)CC2)ccc1C [Example 255, (1s,4s)-4-(6-(2-(3,3-Difluoroazetidin-1-yl)ethoxy)-4-methyl-1-oxoisoindolin-2-yl)-N-(3-methoxy-4-methylphenyl)cyclohexanecarboxamide]	100 to 1000 nM
COc1ccc(NC(=O)[C@]2(C)CC[C@H](N3Cc4c(C)ccc(OC)c4NC3=O)CC2)cc1C#N (single isomer, unassigned) [Example 9, (1s,4s)-N-(3-cyano-4-methoxyphenyl)-4-(8-methoxy-5-methyl-2-oxo-1,2-dihydroquinazolin-3(4H)-yl)-1-methylcyclohexanecarboxamide]	< 100 nM
COc1cc(NC(=O)[C@H]2CC[C@@H](N3Cc4c(C)cc(N5CC6(COC6)C5)cc4NC3=O)CC2)ccc1C [Example 30, (1s,4s)-N-(3-Methoxy-4-methylphenyl)-4-(5-methyl-2-oxo-7-(2-oxa-6-azaspiro[3.3]heptan-6-yl)-1,2-dihydroquinazolin-3(4H)-yl)cyclohexanecarboxamide]	< 100 nM
COc1ccc(NC(=O)[C@H]2CC[C@@H](N3Cc4c(C)cccc4C3=O)CC2)cc1C#N [Example 239, (1s,4s)-N-(3-Cyano-4-methoxyphenyl)-4-(4-methyl-1-oxoisoindolin-2-yl)cyclohexanecarboxamide]	100 to 1000 nM
COc1ccc(NC(=O)[C@]2(C)CC[C@H](N3Cc4c(C)ccc(OC)c4NC3=O)CC2)cc1Cl (single isomer, unassigned) [Example 7, (1s,4s)-N-(3-chloro-4-methoxyphenyl)-4-(8-methoxy-5-methyl-2-oxo-1,2-dihydroquinazolin-3(4H)-yl)-1-methylcyclohexanecarboxamide]	< 100 nM
COc1ccc(NC(=O)[C@]2(C)CC[C@H](N3Cc4c(C)ccc(OC)c4NC3=O)CC2)cc1C (single isomer, unassigned) [Example 11, (1s,4s)-N-(3-methyl-4-methoxyphenyl)-4-(8-methoxy-5-methyl-2-oxo-1,2-dihydroquinazolin-3(4H)-yl)-1-methylcyclohexanecarboxamide]	< 100 nM
COc1cc(NC(=O)[C@H]2CC[C@@H](N3Cc4c(C)ccc(C#N)c4C3=O)CC2)ccc1C [Example 143, (1s,4s)-4-(7-Cyano-4-methyl-1-oxoisoindolin-2-yl)-N-(3-methoxy-4-methylphenyl)cyclohexanecarboxamide]	< 100 nM
COc1cc(NC(=O)[C@H]2CC[C@@H](N3Cc4ccccc4NC3=O)CC2)ccc1C [Example 67, (1s,4s)-N-(3-methoxy-4-methylphenyl)-4-(2-oxo-1,2-dihydroquinazolin-3(4H)-yl)cyclohexanecarboxamide]	100 to 1000 nM
